According to patent US20120015907A1, “Furopyridine compounds and uses thereof” (NOVARTIS AG, priority 2010, published 2012):

How the values were obtained:
HCV polymerase = molecular target: T1, HCV polymerase (Hepatitis C virus genotype 1b, UniProt Q9WMX2); experiment: biochemical; conditions: polymerase assay of Biological Example 1; read-out: NS5B polymerase IC50
T1 construct: (His)6 (C)

[1] = system: HCV replicon I389luc-ubi-neo/NS3-3'/ET in ET (Huh-lucubineo-ET) cells; experiment: Replicon assay (Biological Example 2), luciferase read-out; assay type: cell-based; conditions: Hepatitis C virus, luciferase activity 48 hours after compound addition
Protocol: A cell line, ET (Huh-lucubineo-ET) is used for screening of compounds for inhibiting HCV RNA dependent RNA polymerase. The ET cell line is stably transfected with RNA transcripts harboring a I389luc-ubi-neo/NS3-3′/ET; replicon with firefly luciferase-ubiquitin-neomycin phosphotransferase fusion protein and EMCV-IRES driven NS3-5B polyprotein containing the cell culture adaptive mutations (E1202G; […]; K1846T) (Krieger at al, 2001 and unpublished). The ET cells are grown in DMEM (Dulbeco's Modified Eagle's Medium), supplemented with 10% fetal calf serum, 2 mM Glutamine, Penicillin (100 IU/mL)/Streptomycin (100 μg/mL), 1× nonessential amino acids, and 250 μg/mL G418 (“Geneticin”). Reagents are all available through Life Technologies (Bethesda, Md.). The cells are plated at 0.5-1.0×10^4 cells/well in the 96 well plates and incubated for 24 hrs before adding test compound. The compounds are added to the cells to achieve a final concentration of 0.1 nM to 50 μM and a final DMSO (dimethylsulfoxide) concentration of 0.5%. Luciferase activity is measured 48 hours later by adding a lysis buffer and the substrate (Catalog number Glo-lysis buffer E2661 and Bright-Glo luciferase system E2620 Promega, Madison, Wis.). Cells should not be too confluent during the assay. Percent inhibition of replication data is plotted relative to no compound control. To determine the EC50 (effective concentration at which 50% of the maximum inhibition is observed), a 10 point, 3-fold serial dilution for each compound is used, which spans a concentration range of 1000 fold. EC50 values were calculated by fitting % inhibition at each concentration to the following equation:
% inhibition=100%/[(EC50/[I])^b+1]
where b is Hill's coefficient.

Row | SMILES | IC50 (HCV polymerase) | IC50 [1]
1 | C=Cc1cc2c(C(=O)NC)c(-c3ccc(F)cc3)oc2nc1N(CCCC(=O)OC)S(C)(=O)=O [Example 24.2, methyl 4-(N-(2-(4-fluorophenyl)-3-(methylcarbamoyl)-5-vinylfuro[2,3-b]pyridin-6-yl)methylsulfonamido) butanoate] | 42 nM | ≤ 100 nM
2 | CNC(=O)c1c(-c2ccc(C)cc2)oc2nc(N(CCCCC(=O)O)S(C)(=O)=O)c(C3CC3)cc12 [Example 25.1, 5-(N-(5-cyclopropyl-3-(methylcarbamoyl)-2-p-tolylfuro[2,3-b]pyridin-6-yl)methylsulfonamido)pentanoic acid] | 2 nM | ≤ 100 nM
3 | CNC(=O)c1c(-c2ccc(F)cc2)oc2nc(N(CCCCCS(C)(=O)=O)S(C)(=O)=O)c(C3CC3)cc12 [Example 26.2, 5-cyclopropyl-2-(4-fluorophenyl)-N-methyl-6-(N-(5-(methylsulfonyl)pentyl)methylsulfonamido) furo[2,3-b]pyridine-3-carboxamide] | 4 nM | ≤ 100 nM
4 | CNC(=O)c1c(-c2ccc(Cl)cc2)oc2nc(N(CCC[C@@H]3CCCS3(=O)=O)S(C)(=O)=O)c(C3CC3)cc12 [Example 24.8, 2-(4-Chloro-phenyl)-5-cyclopropyl-6-{[3-((R)-1,1-dioxo-tetrahydrothiophen-2-yl)-propyl]-methanesulfonyl-amino}-furo[2,3-b]pyridine-3-carboxylic acid methylamide] | 1 nM | ≤ 100 nM
5 | CNC(=O)c1c(-c2ccc(Cl)cc2)oc2nc(N(C)S(C)(=O)=O)c(C3CC3)cc12 [Example 2.96] | 24 nM | ≤ 100 nM
6 | CNC(=O)c1c(-c2ccc(F)cc2)oc2nc(N(CCCOCCOC)S(C)(=O)=O)c(C3CC3)cc12 [Example 25, 5-cyclopropyl-2-(4-fluorophenyl)-6-(N-(3-(2-methoxyethoxy)propyl)methylsulfonamido)-N-methylfuro[2,3-b]pyridine-3-carboxamide] | 5 nM | ≤ 100 nM
7 | CCc1cc2c(C(=O)NC)c(-c3ccc(F)cc3)oc2nc1N(CCCCC(C)=O)S(C)(=O)=O [Example 22.92, 5-ethyl-2-(4-fluorophenyl)-N-methyl-6-(N-(5-oxohexyl)methylsulfonamido)furo[2,3-b]pyridine-3-carboxamide] | 32 nM | ≤ 100 nM
8 | CNC(=O)c1c(-c2ccc(Cl)cc2F)oc2nc(N(C)S(C)(=O)=O)c(C3CC3)cc12 [Example 2.97] | 4 nM | ≤ 100 nM
9 | CCc1cc2c(C(=O)NC)c(-c3ccc(F)cc3)oc2nc1N(CCCS(=O)(=O)C(C)C)S(C)(=O)=O [Example 23.91, 5-ethyl-2-(4-fluorophenyl)-6-(N-(3-(isopropylsulfonyl)propyl)methylsulfonamido)-N-methylfuro[2,3-b]pyridine-3-carboxamide] | 18 nM | ≤ 100 nM
10 | CNC(=O)c1c(-c2ccc(F)cc2)oc2nc3c(cc12)C(C)C(O)CCN3S(C)(=O)=O (stereo not drawn) [Example 31, 2-(4-Fluoro-phenyl)-6-hydroxy-9-methanesulfonyl-5-methyl-6,7,8,9-tetrahydro-5H-1-oxa-9,10-diaza-cyclohepta[f]indene-3-carboxylic acid methylamide] | 35 nM | ≤ 100 nM
11 | CCc1cc2c(C(=O)NC)c(-c3ccc(F)cc3)oc2nc1N(C)S(C)(=O)=O [Example 6, 5-Ethyl-2-(4-fluoro-phenyl)-6-(methanesulfonyl-methyl-amino)-furo[2,3-b]pyridine-3-carboxylic acid methylamide] | 20 nM | ≤ 100 nM
12 | CNC(=O)c1c(-c2ccc(C)cc2)oc2nc(N(CCCC3CCCS3(=O)=O)S(C)(=O)=O)c(I)cc12 (stereo not drawn) [Example 18.99, 6-{[3-(1,1-Dioxo-tetrahydrophiophen-2-yl)-propyl]-methanesulfonyl-amino}-5-iodo-2-p-totyl-furo[2,3-b]pyridine-3-carboxylic acid methylamide] | 5 nM | ≤ 100 nM
13 | CNC(=O)c1c(-c2ccc(F)cc2)oc2nc(N(CCCC(=O)NS(C)(=O)=O)S(C)(=O)=O)c(I)cc12 [Example 18.96, 2-(4-fluorophenyl)-5-iodo-N-methyl-6-(N-(4-(methylsulfonamido)-4-oxobutyl)methylsulfonamido)furo[2,3-b]pyridine-3-carboxamide] | 34 nM | ≥ 5000 nM
14 | CNC(=O)c1c(-c2ccc(F)cc2)oc2nc(N(CCCC3CCCS3(=O)=O)S(C)(=O)=O)c(C3CC3)cc12 (racemic) [Example 24.4] | 9 nM | ≤ 100 nM
15 | CNC(=O)c1c(-c2ccc(F)cc2)oc2nc(N(CCCC(=O)O)S(C)(=O)=O)c(I)cc12 [Example 18.95, 4-(N-(2-(4-fluorophenyl)-5-iodo-3-(methylcarbamoyl)furo[2,3-b]pyridin-6-yl)methylsulfonamido)butanoic acid] | 112 nM | ≥ 5000 nM
16 | CNC(=O)c1c(-c2ccc(F)cc2)oc2nc(N(CCCCS(C)(=O)=O)S(C)(=O)=O)c(C3CC3)cc12 [Example 25.7, 5-cyclopropyl-2-(4-fluorophenyl)-N-methyl-6-(N-(4-(methylsulfonyl)butyl)methylsulfonamido)furo[2,3-b]pyridine-3-carboxamide] | 1 nM | ≤ 100 nM
17 | CNC(=O)c1c(-c2ccc(Cl)cc2)oc2nc(N(CCCCS(C)(=O)=O)S(C)(=O)=O)c(C3CC3)cc12 [Example 25.8] | 1 nM | ≤ 100 nM
18 | CNC(=O)c1c(-c2ccc(F)cc2)oc2nc(N(CCCCC(=O)OC)S(C)(=O)=O)c(C3CC3)cc12 [Example 26.8, methyl 5-(N-(5-cyclopropyl-2-(4-fluorophenyl)-3-(methylcarbamoyl)furo[2,3-b]pyridin-6-yl)methylsulfonamido) pentanoate] | 5 nM | ≤ 100 nM
19 | CCc1cc2c(C(=O)NC)c(-c3ccc(F)cc3)oc2nc1N(CCCS(=O)(=O)c1ccccc1)S(C)(=O)=O [Example 21.97, 5-ethyl-2-(4-fluorophenyl)-N-methyl-6-(N-(3-(phenylsulfonyl)propyl)methylsulfonamido)furo[2,3-b]pyridine-3-carboxamide] | 3 nM | ≤ 100 nM
20 | CCc1cc2c(C(=O)NC)c(-c3ccc(F)cc3)oc2nc1N(CCCCN1CCC[C@H]1C(=O)O)S(C)(=O)=O [Example 23.98, (S)-1-(4-(N-(5-ethyl-2-(4-fluorophenyl)-3-(methylcarbamoyl)furo[2,3-b]pyridin-6-yl)methylsulfonamido)butyl) pyrrolidine-2-carboxylic acid] | 166 nM | ≥ 5000 nM
21 | CCc1cc2c(C(=O)NC)c(-c3ccc(F)cc3)oc2nc1N(CCCCS(=O)(=O)C(C)C)S(C)(=O)=O [Example 23.92, 5-ethyl-2-(4-fluorophenyl)-6-(N-(4-(isopropylsulfonyl)butyl)methylsulfonamido)-N-methylfuro[2,3-b]pyridine-3-carboxamide] | 11 nM | ≤ 100 nM
22 | CNC(=O)c1c(-c2ccc(F)cc2)oc2nc(N(C)S(C)(=O)=O)c(CCCCC(=O)O)cc12 [Example 4, 5-(2-(4-fluorophenyl)-3-(methylcarbamoyl)-6-(N-methylmethylsulfonamido)furo[2,3-b]pyridin-5-yl)pentanoic acid] | 49 nM | ≥ 5000 nM
23 | CNC(=O)c1c(-c2ccc(Cl)cc2F)oc2nc(N(C)S(C)(=O)=O)c(I)cc12 [Example 2.95, 2-(4-chloro-2-fluorophenyl)-5-iodo-N-methyl-6-(N-methylmethylsulfonamido)furo[2,3-b]pyridine-3-carboxamide] | 8 nM | ≤ 100 nM
24 | CNC(=O)c1c(-c2ccc(F)cc2)oc2nc3c(cc12)C(C)CCCCN3S(C)(=O)=O (stereo not drawn) [Example 36.3, 2-(4-Fluoro-phenyl)-10-methanesulfonyl-5-methyl-5,6,7,8,9,10-hexahydro-1-oxa-10,11-diaza-cycloocta[f]indene-3-carboxylic acid methylamide] | 70 nM | ≤ 100 nM
25 | CCc1cc2c(C(=O)NC)c(-c3ccc(F)cc3)oc2nc1N(CCCN1CCCCS1(=O)=O)S(C)(=O)=O [Example 23.7, 6-{[3-(1,1-Dioxo-[1,2]thiazinan-2-yl)-propyl]-methanesulfonyl-amino}-5-ethyl-2-(4-fluorophenyl)-furo[2,3-b]pyridine-3-carboxylic acid methylamide] | 5 nM | ≤ 100 nM
26 | CNC(=O)c1c(-c2ccc(F)cc2)oc2nc3c(cc12)CCCCCCN3S(C)(=O)=O [Example 36.4, 2-(4-Fluoro-phenyl)-11-methanesulfonyl-6,7,8,9,10,11-hexahydro-5H-1-oxa-11,12-diaza-cyclonona[f]indene-3-carboxylic acid methylamide] | 5 nM | ≤ 100 nM
27 | C=Cc1cc2c(C(=O)NC)c(-c3ccc(F)cc3)oc2nc1N(C)S(C)(=O)=O [Example 2.1, 2-(4-fluorophenyl)-N-methyl-6-(N-methylmethylsulfonamido)-5-vinylfuro[2,3-b]pyridine-3-carboxamide] | 12 nM | ≤ 100 nM
